The values below are quoted from earlier work in patent US8389574B2, “Method useful for the prevention of type 2 diabetes and its complications in pre-diabetic patients with insulin resistance” (Sigma-Tau Industrie Farmaceutiche Riunite S.p.A., priority 2007, dated 2013).

Structures are written as SMILES.

The conditions of the series: DPP participants at high risk for IGT and type 2 diabetes; over 3 years.

As to `CN(C)C(=N)N=C(N)N` [metformin], the “Reduction of risk of getting type 2 diabetes” value is reported as 31%.
